One test relates to A549. As to the kind of experiment: erlotinib sensitivity, apoptosis assay after 48 h. The test is classed as cell-based, human. To be noted: NSCLC cell line A549, apoptosis assay after 48 h. The protocol: (§1) The lung cancer cell lines were analyzed for in vitro sensitivity to the EGFR-tyrosine kinase inhibitor erlotinib. Cell lines were designated as “resistant” or sensitive” based upon an empirically determined threshold.
(§2) The panel of NSCLC cell lines were separated into sensitive and resistant to erlotinib treatment using an apoptosis assay after 48 h as a measure (Balko et al., 2006). […] All cell lines were passaged as previously published and harvested after 2 days growth in serum-containing media (Balko et al., 2006). Lung cancer cell lines sensitive to erlotinib (H322 and HCC827) and resistant to erlotinib (H2122 and H820) and pancreatic cancer cell lines sensitive to erlotinib (Aspc-1 and Bxpc-3) and resistant to erlotinib (Mia PaCa-2 and Panc-1) were used for validation of the predictor, as previously described, again harvested after 2 days growth in serum-containing media (Tzeng et al., 2007).

Another test concerns H1650. As to the kind of experiment: erlotinib sensitivity, apoptosis assay after 48 h. It counts as cell-based, human. The note with it: NSCLC cell line H1650, apoptosis assay after 48 h. How it is done:
as §1, §2

A further test deals with H1975. In words: erlotinib sensitivity, apoptosis assay after 48 h. The test is classed as cell-based, human. The note with it: NSCLC cell line H1975, apoptosis assay after 48 h. The protocol: as §1, §2
The test system of a further test is H3255. As to the kind of experiment: erlotinib sensitivity, apoptosis assay after 48 h. It counts as cell-based, human. To be noted: NSCLC cell line H3255, apoptosis assay after 48 h. How it is done:
as §1, §2

A further test deals with H358. In words: erlotinib sensitivity, apoptosis assay after 48 h. It counts as cell-based, human. To be noted: NSCLC cell line H358, apoptosis assay after 48 h. The protocol: as §1, §2
For another test, the system named is H460. As to the kind of experiment: erlotinib sensitivity, apoptosis assay after 48 h. It counts as cell-based, human. The note with it: NSCLC cell line H460, apoptosis assay after 48 h. The protocol:
as §1, §2

Another test concerns PC-9. In words: erlotinib sensitivity, apoptosis assay after 48 h. It counts as cell-based, human. The note with it: NSCLC cell line PC-9, apoptosis assay after 48 h. The protocol: as §1, §2
The next test relates to UKY-29. As to the kind of experiment: erlotinib sensitivity, apoptosis assay after 48 h. It counts as cell-based, human. The note with it: NSCLC cell line UKY-29, apoptosis assay after 48 h. How it is done:
as §1, §2

The next test relates to H2122. In words: erlotinib sensitivity of validation lung cancer cell line. It counts as cell-based, human. The note with it: lung cancer cell line H2122, validation set. How it is done: as §2
In a further test the test system is H322. Described as above. To be noted: lung cancer cell line H322, validation set. It counts as cell-based, human. How it is done:
as §2

In another test the test system is H820. The test is described as above. The test is classed as cell-based, human. To be noted: lung cancer cell line H820, validation set. The protocol:
as §2

For the next test, the system named is HCC827. The test is described as above. The note with it: lung cancer cell line HCC827, validation set. It counts as cell-based, human. The protocol:
as §2

For a further test, the system named is Aspc-1. To be noted: pancreatic cancer cell line Aspc-1, validation set (Tzeng et al., 2007); cited from earlier work.
Another test has as its system Bxpc-3. The note with it: pancreatic cancer cell line Bxpc-3, validation set (Tzeng et al., 2007); cited from earlier work.
In a further test the test system is Mia PaCa-2. The note with it: pancreatic cancer cell line Mia PaCa-2, validation set (Tzeng et al., 2007); cited from earlier work.
A further test concerns Panc-1. The note with it: pancreatic cancer cell line Panc-1, validation set (Tzeng et al., 2007); cited from earlier work.

Regarding `C#Cc1cccc(Nc2ncnc3cc(OCCOC)c(OCCOC)cc23)c1` [erlotinib], the “sensitivity to erlotinib treatment” value in the test on A549 was “Resistant”; in the test with H1650, “sensitive”; with H1975, “Resistant”; in the test on H3255 it was “sensitive”; in the test on H358, “sensitive”; in the test on H460, “Resistant”. Besides, the “sensitivity to erlotinib treatment” value is reported as “sensitive” with PC-9 and “Resistant” in the test with UKY-29. Moreover, the sensitivity to erlotinib result in the test with H2122 is “resistant”; in the test on H322, “sensitive”; in the test with H820, “resistant”; in the test with HCC827, “sensitive”; with Aspc-1 it was “sensitive”; with Bxpc-3 it was “sensitive”. Moreover, the sensitivity to erlotinib result with Mia PaCa-2 and in the test with Panc-1 was “resistant” throughout.

These data come from patent US20110320392A1, “METHODS FOR PREDICTING CANCER RESPONSE TO EGFR INHIBITORS” (priority 2009, published 2011).
